From PubChem BioAssay (NCI)
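Step 1: Grow cells in 96-well plates. Step 2: Expose to compound for 48 hours at 5 concentrations. Step 3: Interpolate endpoints linearly; if unreached, use highest concentration. TGI: concentration producing complete growth inhibition.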

Tests used:
Assay in all cases: NCI tumour cell line growth inhibition, 48 h
NCI-H23 lung = system: NCI-H23 lung
IGROV1 ovarian = system: IGROV1 ovarian
DMS 114 small cell lung = system: DMS 114 small cell lung
NCI/ADR-RES ovarian = system: NCI/ADR-RES ovarian
NCI-H226 lung = system: NCI-H226 lung
MCF7 breast = system: MCF7 breast
KM12 colon = system: KM12 colon
MOLT-4 leukemia = system: MOLT-4 leukemia
COLO 205 colon = system: COLO 205 colon
UACC-62 melanoma = system: UACC-62 melanoma
UACC-257 melanoma = system: UACC-257 melanoma
A498 renal = system: A498 renal
P388 leukemia = system: P388 leukemia
HOP-92 NSCLC = system: HOP-92 NSCLC
P388/ADR leukemia = system: P388/ADR leukemia
OVCAR-8 ovarian = system: OVCAR-8 ovarian
U251 CNS = system: U251 CNS
RPMI-8226 leukemia = system: RPMI-8226 leukemia
SW-620 colon = system: SW-620 colon
SF-295 CNS = system: SF-295 CNS
SK-OV-3 ovarian = system: SK-OV-3 ovarian
HT29 colon = system: HT29 colon
M19-MEL melanoma = system: M19-MEL melanoma
SK-MEL-2 melanoma = system: SK-MEL-2 melanoma
CAKI-1 renal = system: CAKI-1 renal
HCC-2998 colon = system: HCC-2998 colon
OVCAR-3 ovarian = system: OVCAR-3 ovarian
SK-MEL-5 melanoma = system: SK-MEL-5 melanoma
OVCAR-5 ovarian = system: OVCAR-5 ovarian
NCI-H522 lung = system: NCI-H522 lung
DLD-1 colon = system: DLD-1 colon
RXF 393 renal = system: RXF 393 renal
SF-268 CNS = system: SF-268 CNS
HOP-18 NSCLC = system: HOP-18 NSCLC
CCRF-CEM leukemia = system: CCRF-CEM leukemia
NCI-H460 lung = system: NCI-H460 lung
SN12C renal = system: SN12C renal
K-562 leukemia = system: K-562 leukemia
HL-60(TB) leukemia = system: HL-60(TB) leukemia
MALME-3M melanoma = system: MALME-3M melanoma
UO-31 renal = system: UO-31 renal
SNB-19 CNS = system: SNB-19 CNS
DMS 273 small cell lung = system: DMS 273 small cell lung
HCT-116 colon = system: HCT-116 colon
SN12K1 renal = system: SN12K1 renal
SNB-75 CNS = system: SNB-75 CNS
SF-539 CNS = system: SF-539 CNS
SK-MEL-28 melanoma = system: SK-MEL-28 melanoma
HCT-15 colon = system: HCT-15 colon
KM20L2 colon = system: KM20L2 colon
HOP-62 NSCLC = system: HOP-62 NSCLC
A549 NSCLC = system: A549 NSCLC
LOX IMVI melanoma = system: LOX IMVI melanoma
OVCAR-4 ovarian = system: OVCAR-4 ovarian
PC-3 prostate = system: PC-3 prostate
RXF-631 renal = system: RXF-631 renal
MDA-MB-435 = system: MDA-MB-435
T-47D breast = system: T-47D breast
TK-10 renal = system: TK-10 renal
ACHN renal = system: ACHN renal
LXFL 529 NSCLC = system: LXFL 529 NSCLC
M14 melanoma = system: M14 melanoma
HS 578T breast = system: HS 578T breast
MDA-MB-231 breast = system: MDA-MB-231 breast
EKVX NSCLC = system: EKVX NSCLC
SR leukemia = system: SR leukemia
XF 498 CNS = system: XF 498 CNS
MDA-N = system: MDA-N
786-0 renal = system: 786-0 renal
SNB-78 CNS = system: SNB-78 CNS
DU-145 prostate = system: DU-145 prostate

O=S(=O)(CCBr)CCBr showed a TGI (NCI-H23 lung) of 18.7 µM, a TGI (IGROV1 ovarian) of 18.8 µM and a TGI (DMS 114 small cell lung) of 6.72 µM. The TGI (NCI/ADR-RES ovarian) was 5.02 µM, the TGI (NCI-H226 lung) was 54.9 µM and the TGI (MCF7 breast) was 18.3 µM. It also gave a TGI (KM12 colon) of 30 µM, a TGI (MOLT-4 leukemia) of 7.75 µM and a TGI (COLO 205 colon) of 12.7 µM. It also gave a TGI (UACC-62 melanoma) of 11 µM, a TGI (UACC-257 melanoma) of 13.5 µM and a TGI (A498 renal) of 14.8 µM. For the same compound, the TGI (P388 leukemia) was 5.67 µM, the TGI (HOP-92 NSCLC) was 20.9 µM and the TGI (P388/ADR leukemia) was 12.1 µM. The TGI (OVCAR-8 ovarian) was 5.68 µM, the TGI (U251 CNS) was 29.2 µM and the TGI (RPMI-8226 leukemia) was 12.1 µM. For the same compound, the TGI (SW-620 colon) was 5.74 µM, the TGI (SF-295 CNS) was 29.8 µM and the TGI (SK-OV-3 ovarian) was 43.6 µM. The TGI (HT29 colon) was 20.3 µM, the TGI (M19-MEL melanoma) was 15 µM and the TGI (SK-MEL-2 melanoma) was 26 µM. For the same compound, the TGI (CAKI-1 renal) was 16.4 µM, the TGI (HCC-2998 colon) was 18.1 µM and the TGI (OVCAR-3 ovarian) was 12.3 µM. The TGI (SK-MEL-5 melanoma) was 19.8 µM, the TGI (OVCAR-5 ovarian) was 26.7 µM and the TGI (NCI-H522 lung) was 3.11 µM. The TGI (DLD-1 colon) was 8.66 µM, the TGI (RXF 393 renal) was 5.88 µM and the TGI (SF-268 CNS) was 16.1 µM. For the same compound, the TGI (HOP-18 NSCLC) was 32 µM, the TGI (CCRF-CEM leukemia) was greater than 30.2 µM and the TGI (NCI-H460 lung) was 29.9 µM. The TGI (SN12C renal) was 21.8 µM, the TGI (K-562 leukemia) was greater than 48.8 µM and the TGI (HL-60(TB) leukemia) was 5.93 µM. The TGI (MALME-3M melanoma) was 9.2 µM, the TGI (UO-31 renal) was greater than 100 µM and the TGI (SNB-19 CNS) was 35 µM. It also gave a TGI (DMS 273 small cell lung) of 15.1 µM, a TGI (HCT-116 colon) of 10.5 µM and a TGI (SN12K1 renal) of 19.7 µM. It also gave a TGI (SNB-75 CNS) of 25.5 µM, a TGI (SF-539 CNS) of 18.6 µM and a TGI (SK-MEL-28 melanoma) of 8.61 µM. For the same compound, the TGI (HCT-15 colon) was 7.88 µM, the TGI (KM20L2 colon) was 23.2 µM and the TGI (HOP-62 NSCLC) was 43.1 µM. The TGI (A549 NSCLC) was 27.8 µM, the TGI (LOX IMVI melanoma) was 21.8 µM and the TGI (OVCAR-4 ovarian) was 22.5 µM.

For C#Cc1cccc(N2C(=O)CCC2=O)c1, the TGI (PC-3 prostate) was 28.6 µM, the TGI (NCI-H23 lung) was 24.5 µM and the TGI (IGROV1 ovarian) was 37.9 µM. The TGI (DMS 114 small cell lung) was 21.8 µM, the TGI (RXF-631 renal) was 41.1 µM and the TGI (NCI-H226 lung) was 35 µM. The TGI (MCF7 breast) was 44.5 µM, the TGI (KM12 colon) was 19.5 µM and the TGI (MDA-MB-435) was 31.2 µM. For the same compound, the TGI (MOLT-4 leukemia) was 23 µM, the TGI (COLO 205 colon) was 24.8 µM and the TGI (UACC-62 melanoma) was 33.8 µM. It also gave a TGI (T-47D breast) of 56.8 µM, a TGI (UACC-257 melanoma) of 29.9 µM and a TGI (A498 renal) of 29.5 µM. For the same compound, the TGI (TK-10 renal) was 29.9 µM, the TGI (OVCAR-8 ovarian) was 36.1 µM and the TGI (U251 CNS) was 33 µM. It also gave a TGI (RPMI-8226 leukemia) of 15.9 µM, a TGI (SW-620 colon) of 19.2 µM and a TGI (ACHN renal) of 30.6 µM. The TGI (SF-295 CNS) was 30.1 µM, the TGI (SK-OV-3 ovarian) was 43 µM and the TGI (HT29 colon) was 34.2 µM. It also gave a TGI (M19-MEL melanoma) of 35.3 µM, a TGI (SK-MEL-2 melanoma) of 36.6 µM and a TGI (CAKI-1 renal) of 29 µM. For the same compound, the TGI (HCC-2998 colon) was 29.5 µM, the TGI (OVCAR-3 ovarian) was 37.3 µM and the TGI (SK-MEL-5 melanoma) was 37.1 µM. For the same compound, the TGI (OVCAR-5 ovarian) was 32.5 µM, the TGI (NCI-H522 lung) was 11.9 µM and the TGI (DLD-1 colon) was 50.1 µM. The TGI (SF-268 CNS) was 33.1 µM, the TGI (HOP-18 NSCLC) was 34.3 µM and the TGI (CCRF-CEM leukemia) was 8.11 µM. The TGI (NCI-H460 lung) was 71.7 µM, the TGI (SN12C renal) was 33.6 µM and the TGI (K-562 leukemia) was 20.9 µM. For the same compound, the TGI (LXFL 529 NSCLC) was 15.8 µM, the TGI (HL-60(TB) leukemia) was 10.4 µM and the TGI (MALME-3M melanoma) was 28.2 µM. It also gave a TGI (UO-31 renal) of 31.9 µM, a TGI (M14 melanoma) of 11.7 µM and a TGI (HS 578T breast) of 85.8 µM. For the same compound, the TGI (SNB-19 CNS) was 48 µM, the TGI (DMS 273 small cell lung) was 47.4 µM and the TGI (MDA-MB-231 breast) was 44.6 µM. It also gave a TGI (HCT-116 colon) of 23.1 µM, a TGI (SNB-75 CNS) of 26.8 µM and a TGI (EKVX NSCLC) of 34.3 µM. The TGI (SR leukemia) was 4.74 µM, the TGI (SF-539 CNS) was 46.9 µM and the TGI (SK-MEL-28 melanoma) was 32.3 µM. For the same compound, the TGI (HCT-15 colon) was 50 µM, the TGI (XF 498 CNS) was 29 µM and the TGI (KM20L2 colon) was 59 µM. It also gave a TGI (A549 NSCLC) of 42.7 µM, a TGI (LOX IMVI melanoma) of 32 µM and a TGI (MDA-N) of 28.7 µM. It also gave a TGI (786-0 renal) of 40.5 µM, a TGI (SNB-78 CNS) of 54.6 µM and a TGI (DU-145 prostate) of 28.3 µM. The TGI (OVCAR-4 ovarian) was 20.5 µM.
